For data set [1], the system named is HIV-1 (IIIB) in MT-4 cells. In words: MT-4 HIV assay. The class given is cell-based. The note with it: Human immunodeficiency virus 1, MT4, 120 h. A digest of the protocol: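 MT-4 cells infected with HIV-1 IIIB (1:250 stock dilution) were incubated with 1:3 serially diluted compounds in RPMI with 10% FBS for 5 days at 37 °C. Cell Titer Glo luminescence was the readout. Plates included mock-infected wells, no-drug wells and 5 uM AZT controls.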

The procedure of data set [2]: Liver Microsomal Stability Protocol
Test compounds and one control compound (verapamil) were tested in 3 different species in duplicate sets.
Test compound concentration: 1 uM; Protein concentration: 0.5 mg/mL (for dog, rat, and human liver microsomes); Cofactor: NADPH-Regenerating system (NRS) solution; Time-points: 2, 12, 25, 45, and 65 minutes.
Reaction composition (in each incubation well) contains:
After plates were vortexed, they were centrifuged for 30 minutes to remove proteins. About 100 μL supernatant was removed to a new plate and diluted with 150 μL water. About 20 μL of the mixture was injected into LC/MS/MS system to monitor the compound's response. In vitro measured t1/2 was used to calculate Clint values.

The mark [3] stands for this setting: HIV-1 (IIIB), MT-4 cells, 5 days, Cell Titer Glo, read-out: EC50.
Setting [4] is: human liver microsomes 0.5 mg/mL, 1 uM compound, NADPH.
Setting [5] is: rat liver microsomes 0.5 mg/mL, 1 uM compound, NADPH.

Where two headings read alike, the source gives them in different places. Some results are limits rather than exact numbers.

The term EC50 denotes the concentration that produces a half-maximal response.

For the compound `COC(=O)N[C@H](C(=O)N[C@@H](Cc1ccc(C#Cc2ccc(N3CC4COCC(C3)N4)nc2)cc1)[C@@H](O)CN(Cc1c(F)cc(-c2ccn(C(F)F)n2)cc1F)NC(=O)[C@@H](NC(=O)OC)C(C)(C)C(F)(F)F)C(C)(C)C(F)(F)F` [Example 26, Methyl ((5S,8S,9S,14S)-8-(4-((6-(3-oxa-7,9-diazabicyclo[3.3.1]nonan-7-yl)pyridin-3-yl)ethynyl)benzyl)-11-(4-(1-(difluoromethyl)-1H-pyrazol-3-yl)-2,6-difluorobenzyl)-16,16,16-trifluoro-9-hydroxy-15,15-dimethyl-3,6,13-trioxo-5-(1,1,1-trifluoro-2-methylpropan-2-yl)-2-oxa-4,7,11,12-tetraazahexadecan-14-yl)carbamate], the concentration giving a half-maximal response (EC50) in data set [1] (setting [3]) stood at 4.24 nM. The “Human Pred Cl.” value in data set [2] (human, microsomes) was less than 0.11 L/H/kg. Also, the “Rat. Pred. Cl.” value in data set [2] (rat, microsomes) was found to be 1.6 L/H/kg.
On to `COC(=O)N[C@H](C(=O)N[C@@H](Cc1ccc(C#Cc2cnc(N3C[C@H]4C[C@@H]3CN4C3COC3)nc2)cc1)[C@@H](O)CN(Cc1c(F)cc(-c2ccn(C3CC3)n2)cc1F)NC(=O)[C@@H](NC(=O)OC)C(C)(C)C(F)(F)F)C(C)(C)C(F)(F)F` [Example 31, Methyl ((5S,8S,9S,14S)-11-(4-(1-cyclopropyl-1H-pyrazol-3-yl)-2,6-difluorobenzyl)-16,16,16-trifluoro-9-hydroxy-15,15-dimethyl-8-(4-((2-((1R,4R)-5-(oxetan-3-yl)-2,5-diazabicyclo[2.2.1]heptan-2-yl)pyrimidin-5-yl)ethynyl)benzyl)-3,6,13-trioxo-5-(1,1,1-trifluoro-2-methylpropan-2-yl)-2-oxa-4,7,11,12-tetraazahexadecan-14-yl)carbamate], for which the EC50 in data set [1] (setting [3]) was found to be 3.06 nM. Besides, the “Human Pred Cl.” value in data set [2] (setting [4]) was less than 0.11 L/H/kg. The “Rat. Pred. Cl.” value in data set [2] (setting [5]) turned out to be 0.75 L/H/kg.
In the same order, the values of `COC(=O)N[C@H](C(=O)N[C@@H](Cc1ccc(C#Cc2cnc(N3C[C@H]4C[C@@H]3CN4C3COC3)nc2)cc1)[C@@H](O)CN(Cc1c(F)cc(-c2ccn(C(F)F)n2)cc1F)NC(=O)[C@@H](NC(=O)OC)C(C)(C)C(F)(F)F)C(C)(C)C(F)(F)F` [Example 32, Methyl ((5S,8S,9S,14S)-11-(4-(1-(difluoromethyl)-1H-pyrazol-3-yl)-2,6-difluorobenzyl)-16,16,16-trifluoro-9-hydroxy-15,15-dimethyl-8-(4-((2-((1R,4R)-5-(oxetan-3-yl)-2,5-diazabicyclo[2.2.1]heptan-2-yl)pyrimidin-5-yl)ethynyl)benzyl)-3,6,13-trioxo-5-(1,1,1-trifluoro-2-methylpropan-2-yl)-2-oxa-4,7,11,12-tetraazahexadecan-14-yl)carbamate] are 2.65 nM, less than 0.11 L/H/kg and 0.59 L/H/kg.
With `COC(=O)N[C@H](C(=O)N[C@@H](Cc1ccc(C#Cc2ccc(N3CC4COCC(C3)N4C)nc2)cc1)[C@@H](O)CN(Cc1c(F)cc(-c2ccn(C3CC3)n2)cc1F)NC(=O)[C@@H](NC(=O)OC)C(C)(C)C(F)(F)F)C(C)(C)C(F)(F)F` [Example 35], the 50% effective concentration (EC50) in data set [1] (setting [3]) is 3.54 nM. For the same compound, the “Dog. Pred. Cl.” value in data set [2] (dog, microsomes) is recorded as 1.74 L/H/kg. Besides, in data set [2] (human, microsomes), the “Human Pred Cl.” value is on record as less than 0.11 L/H/kg. Further, the “Rat. Pred. Cl.” value in data set [2] (rat, microsomes) was found to be 2.1 L/H/kg.
Consider `COC(=O)N[C@H](C(=O)N[C@@H](Cc1ccc(C#Cc2cnc(N3CC4CCC(C3)N4C3COC3)nc2)cc1)[C@@H](O)CN(Cc1c(F)cc(-c2ccn(C3CC3)n2)cc1F)NC(=O)[C@@H](NC(=O)OC)C(C)(C)C(F)(F)F)C(C)(C)C(F)(F)F` [Example 37, Methyl ((5S,8S,9S,14S)-11-(4-(1-cyclopropyl-1H-pyrazol-3-yl)-2,6-difluorobenzyl)-16,16,16-trifluoro-9-hydroxy-15,15-dimethyl-8-(4-((2-(8-(oxetan-3-yl)-3,8-diazabicyclo[3.2.1]octan-3-yl)pyrimidin-5-yl)ethynyl)benzyl)-3,6,13-trioxo-5-(1,1,1-trifluoro-2-methylpropan-2-yl)-2-oxa-4,7,11,12-tetraazahexadecan-14-yl)carbamate], for which the EC50 in data set [1] (setting [3]) came out at 6.75 nM. In addition, the “Human Pred Cl.” value in data set [2] (human, microsomes) was less than 0.11 L/H/kg. Also, in data set [2] (rat, microsomes), the “Rat. Pred. Cl.” value is listed as 0.32 L/H/kg.
Take `COC(=O)N[C@H](C(=O)N[C@@H](Cc1ccc(C#Cc2ccc(N3C[C@@H]4C[C@H]3CN4C3COC3)nc2)cc1)[C@@H](O)CN(Cc1c(F)cc(-c2ccn(C3CC3)n2)cc1F)NC(=O)[C@@H](NC(=O)OC)C(C)(C)C(F)(F)F)C(C)(C)C(F)(F)F` [Example 39, Methyl ((5S,8S,9S,14S)-11-(4-(1-cyclopropyl-1H-pyrazol-3-yl)-2,6-difluorobenzyl)-16,16,16-trifluoro-9-hydroxy-15,15-dimethyl-8-(4-((6-((1S,4S)-5-(oxetan-3-yl)-2,5-diazabicyclo[2.2.]heptan-2-yl)pyridin-3-yl)ethynyl)benzyl)-3,6,13-trioxo-5-(1,1,1-trifluoro-2-methylpropan-2-yl)-2-oxa-4,7,11,12-tetraazahexadecan-14-yl)carbamate]: the EC50 in data set [1] came to 2.57 nM. Besides, the “Human Pred Cl.” value in data set [2] (setting [4]) is 0.15 L/H/kg. For the same compound, the “Rat. Pred. Cl.” value in data set [2] (setting [5]) is recorded as 0.54 L/H/kg.
As to `COC(=O)N[C@H](C(=O)N[C@@H](Cc1ccc(C#Cc2ccc(N3CC4CC(C3)N4C3COC3)nc2)cc1)[C@@H](O)CN(Cc1c(F)cc(-c2ccn(C3CC3)n2)cc1F)NC(=O)[C@@H](NC(=O)OC)C(C)(C)C(F)(F)F)C(C)(C)C(F)(F)F` [Example 40, Methyl ((5S,8S,9S,14S)-11-(4-(1-cyclopropyl-1H-pyrazol-3-yl)-2,6-difluorobenzyl)-16,16,16-trifluoro-9-hydroxy-15,15-dimethyl-8-(4-((6-(6-(oxetan-3-yl)-3,6-diazabicyclo[3.1.1]heptan-3-yl)pyridin-3-yl)ethynyl)benzyl)-3,6,13-trioxo-5-(1,1,1-trifluoro-2-methylpropan-2-yl)-2-oxa-4,7,11,12-tetraazahexadecan-14-yl)carbamate], in data set [1] (setting [3]), the EC50 is 3.89 nM. For the same compound, the “Human Pred Cl.” value in data set [2] (human, microsomes) was determined as 0.13 L/H/kg. The “Rat. Pred. Cl.” value in data set [2] (rat, microsomes) was determined as 0.5 L/H/kg.
With `COC(=O)N[C@H](C(=O)N[C@@H](Cc1ccc(C#Cc2ccc(N3C[C@H]4C[C@@H]3CN4C3COC3)nc2)cc1)[C@@H](O)CN(Cc1c(F)cc(-c2ccn(CC(F)F)n2)cc1F)NC(=O)[C@@H](NC(=O)OC)C(C)(C)C(F)(F)F)C(C)(C)C(F)(F)F` [Example 43, Methyl ((5S,8S,9S,14S)-11-(4-(1-(2,2-difluoroethyl)-1H-pyrazol-3-yl)-2,6-difluorobenzyl)-16,16,16-trifluoro-9-hydroxy-15,15-dimethyl-8-(4-((6-((1R,4R)-5-(oxetan-3-yl)-2,5-diazabicyclo[2.2.1]heptan-2-yl)pyridin-3-yl)ethynyl)benzyl)-3,6,13-trioxo-5-(1,1,1-trifluoro-2-methylpropan-2-yl)-2-oxa-4,7,11,12-tetraazahexadecan-14-yl)carbamate], the EC50 in data set [1] stood at 2.87 nM. Also, the “Dog. Pred. Cl.” value in data set [2] (dog liver microsomes 0.5 mg/mL, 1 uM compound, NADPH) was 1.66 L/H/kg. For the same compound, the “Human Pred Cl.” value in data set [2] (setting [4]) was 0.16 L/H/kg. For the same compound, the “Rat. Pred. Cl.” value in data set [2] (setting [5]) was found to be 1.01 L/H/kg.
As for `COC(=O)N[C@H](C(=O)N[C@@H](Cc1ccc(C#Cc2ccc(N3CC4COCC(C3)N4C)nc2)cc1)[C@@H](O)CN(Cc1c(F)cc(-c2ccn(C(F)F)n2)cc1F)NC(=O)[C@@H](NC(=O)OC)C(C)(C)C(F)(F)F)C(C)(C)C(F)(F)F` [Example 44, Methyl ((5S,8S,9S,14S)-11-(4-(1-(difluoromethyl)-1H-pyrazol-3-yl)-2,6-difluorobenzyl)-16,16,16-trifluoro-9-hydroxy-15,15-dimethyl-8-(4-((6-(9-methyl-3-oxa-7,9-diazabicyclo[3.3.1]nonan-7-yl)pyridin-3-yl)ethynyl)benzyl)-3,6,13-trioxo-5-(1,1,1-trifluoro-2-methylpropan-2-yl)-2-oxa-4,7,11,12-tetraazahexadecan-14-yl)carbamate], the EC50 in data set [1] (setting [3]) turned out to be 3.97 nM. Besides, the “Human Pred Cl.” value in data set [2] (human, microsomes) was found to be 0.13 L/H/kg. Moreover, the “Rat. Pred. Cl.” value in data set [2] (rat, microsomes) stood at 2.54 L/H/kg.
On to `COC(=O)N[C@H](C(=O)N[C@@H](Cc1ccc(C#Cc2ccc(N3C[C@H]4C[C@@H]3CN4C3COC3)nc2)cc1)[C@@H](O)CN(Cc1c(F)cc(-c2ccn(C3CC3)n2)cc1F)NC(=O)[C@@H](NC(=O)OC)C(C)(C)C(F)(F)F)C(C)(C)C(F)(F)F` [Example 45, Methyl ((5S,8S,9S,14S)-11-(4-(1-cyclopropyl-1H-pyrazol-3-yl)-2,6-difluorobenzyl)-16,16,16-trifluoro-9-hydroxy-15,15-dimethyl-8-(4-((6-((1R,4R)-5-(oxetan-3-yl)-2,5-diazabicyclo[2.2.1]heptan-2-yl)pyridin-3-yl)ethynyl)benzyl)-3,6,13-trioxo-5-(1,1,1-trifluoro-2-methylpropan-2-yl)-2-oxa-4,7,11,12-tetraazahexadecan-14-yl)carbamate], for which, in data set [1], a half-maximal effect (EC50) was put at 2.56 nM. Besides, the “Human Pred Cl.” value in data set [2] (setting [4]) is listed as less than 0.11 L/H/kg. Also, the “Rat. Pred. Cl.” value in data set [2] (setting [5]) amounted to 0.92 L/H/kg.

The values are drawn from patent publication US10294234B2, “HIV inhibitor compounds” (priority 2017, dated 2019).
